According to patent US20050239656A1, “Pyridine compounds or salts thereof and herbicides containing the same” (priority 2002, published 2005):

Experiments:
[1] = test system: barnyardgrass; assay: Test Example 1: foliage treatment, upland pot test; format: in vivo, Echinochloa crus-galli L.; details: active ingredient 500 g/ha, observed 18th to 23rd day, 0 = non-treated, 100 = complete kill
Summary of the method: (§1)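 Visual growth-control scores (0 = untreated, 100 = complete kill) were taken 18–23 days after foliar spraying of a wettable powder or emulsifiable concentrate, diluted in 500 L/ha water with 0.1% (v/v) spreader. Treatment leaf stages: barnyardgrass 1.3–2.8, rice 1.2–2.6, wheat 1.3–2.4, soybean 0.1–0.4.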

[2] = test system: crabgrass; assay: Test Example 1: foliage treatment, upland pot test; format: in vivo, Digitaria sanguinalis L.; details: active ingredient 500 g/ha, observed 18th to 23rd day, 0 = non-treated, 100 = complete kill
[3] = test system: green foxtail; assay: Test Example 1: foliage treatment, upland pot test; format: in vivo, Setaria viridis L.; details: active ingredient 500 g/ha, observed 18th to 23rd day, 0 = non-treated, 100 = complete kill
[4] = test system: redroot pigweed; assay: Test Example 1: foliage treatment, upland pot test; format: in vivo, Amaranthus retroflexus L.; details: active ingredient 500 g/ha, observed 18th to 23rd day, 0 = non-treated, 100 = complete kill
[5] = test system: prickly sida; assay: Test Example 1: foliage treatment, upland pot test; format: in vivo, Sida spinosa L.; details: active ingredient 500 g/ha, observed 18th to 23rd day, 0 = non-treated, 100 = complete kill
[6] = test system: velvetleaf; assay: Test Example 1: foliage treatment, upland pot test; format: in vivo, Abutilon theophrasti MEDIC.; details: active ingredient 500 g/ha, observed 18th to 23rd day, 0 = non-treated, 100 = complete kill
[7] = test system: rice; assay: Test Example 1: foliage treatment, upland pot test; format: in vivo, Oryza sativa L.; details: crop, active ingredient 500 g/ha, observed 18th to 23rd day, 0 = non-treated, 100 = complete kill
Summary of the method: as §1

[8] = test system: corn; assay: Test Example 1: foliage treatment, upland pot test; format: in vivo, Zea mays L.; details: crop, active ingredient 500 g/ha, observed 18th to 23rd day, 0 = non-treated, 100 = complete kill
Summary of the method: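 Corn seeds were sown in upland field soil held in a 1/170,000 ha pot and grown to the 2.1 to 3.2 leaf stage. A wettable powder or emulsifiable concentrate of the test compound was diluted with water at 500 L/ha, given 0.1% (v/v) agricultural spreader, and sprayed onto the foliage with a small sprayer. Growth controlling degree (%) was scored visually 18th to 23rd days later, from 0 (non-treated) to 100 (complete kill).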

[9] = test system: soybean; assay: Test Example 1: foliage treatment, upland pot test; format: in vivo, Glycine max Merr.; details: crop, active ingredient 500 g/ha, observed 18th to 23rd day, 0 = non-treated, 100 = complete kill
Summary of the method: as §1

[10] = test system: barnyardgrass; assay: Test Example 2: soil surface treatment, upland pot test; format: in vivo, Echinochloa crus-galli L.; details: active ingredient 500 g/ha, observed day 21, 0 = non-treated, 100 = complete kill
Summary of the method: (§2)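 Readout was visual percent growth control (0 matching untreated, 100 complete kill) at days 20–28. Compound, as emulsifiable concentrate or wettable powder at a preset active-ingredient rate in 1,500 L/ha water, was sprayed onto sown upland soil one day after sowing.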

[11] = test system: crabgrass; assay: as above; format: in vivo, Digitaria sanguinalis L.; details: active ingredient 500 g/ha, observed day 21, 0 = non-treated, 100 = complete kill
Summary of the method: as §2

[12] = test system: green foxtail; assay: as above; format: in vivo, Setaria viridis L.; details: active ingredient 500 g/ha, observed day 21, 0 = non-treated, 100 = complete kill
Summary of the method: as §2

[13] = test system: redroot pigweed; assay: as above; format: in vivo, Amaranthus retroflexus L.; details: active ingredient 500 g/ha, observed day 21, 0 = non-treated, 100 = complete kill
Summary of the method: as §2

[14] = test system: prickly sida; assay: as above; format: in vivo, Sida spinosa L.; details: active ingredient 500 g/ha, observed day 21, 0 = non-treated, 100 = complete kill
Summary of the method: as §2

[15] = test system: velvetleaf; assay: as above; format: in vivo, Abutilon theophrasti MEDIC.; details: active ingredient 500 g/ha, observed day 21, 0 = non-treated, 100 = complete kill
Summary of the method: as §2

[16] = test system: rice; assay: as above; format: in vivo, Oryza sativa L.; details: active ingredient 500 g/ha, observed day 21, 0 = non-treated, 100 = complete kill
Summary of the method: as §2

[17] = test system: corn; assay: as above; format: in vivo, Zea mays L.; details: active ingredient 500 g/ha, observed day 21, 0 = non-treated, 100 = complete kill
Summary of the method: as §2

[18] = test system: soybean; assay: as above; format: in vivo, Glycine max Merr.; details: active ingredient 500 g/ha, observed day 21, 0 = non-treated, 100 = complete kill
Summary of the method: as §2

[19] = test system: barnyardgrass; assay: Test Example 3: paddy pot test, application under submerged conditions; format: in vivo, Echinochloa crus-galli L.; details: active ingredient 250 g/ha; submerged application at 0.5 leaf stage; visually observed 14 days after application; 0 = non-treated, 100 = complete kill
Summary of the method: (§3)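 Paddy soil pots; seeds sown, lightly covered; flooded 0.5–1 cm in greenhouse; wapato tubers planted day 1–2; flood raised to 3–4 cm. Submerged pipette application at 0.5 leaf / primary leaf stage. Visual score day 14, 0–100%.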

[20] = test system: japanese bulrush; assay: as above; format: in vivo, Scirpus juncoides; details: active ingredient 250 g/ha; submerged application at 0.5 leaf stage; visually observed 14 days after application; 0 = non-treated, 100 = complete kill
Summary of the method: as §3

[21] = test system: japanese ribbon wapato; assay: as above; format: in vivo, Sagittaria pygniaea; details: active ingredient 250 g/ha; submerged application at primary leaf stage; visually observed 14 days after application; 0 = non-treated, 100 = complete kill
Summary of the method: as §3

[22] = test system: rice (var. Nihonbare); assay: Test Example 3: paddy pot test, transplanted rice; format: in vivo, Oryza sativa L.; details: active ingredient 250 g/ha, applied 4th day after transplantation, visually observed 21st day after application, 0 = non-treated, 100 = complete kill
Summary of the method: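 Visual crop-injury rating (0 = as untreated, 100 = complete kill, %) taken 21 days post-application. Treatment: formulated compound, water-diluted, pipetted into 3–4 cm flood water at a preset active-ingredient dose, 4 days after transplanting 2-leaf Nihonbare rice 3 cm deep in puddled paddy soil.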

Row | Structure (SMILES) | Growth controlling degree (%) Barnyardgrass [1] | Growth controlling degree (%) Crabgrass [2] | Growth controlling degree (%) Green foxtail [3] | Growth controlling degree (%) Redroot pigweed [4] | Growth controlling degree (%) Prickly sida [5] | Growth controlling degree (%) Velvetleaf [6] | Growth controlling degree (%) Rice [7] | Growth controlling degree (%) Corn [8] | Growth controlling degree (%) Soybean [9] | Growth controlling degree (%) Barnyardgrass [10] | Growth controlling degree (%) Crabgrass [11] | Growth controlling degree (%) Green foxtail [12] | Growth controlling degree (%) Redroot pigweed [13] | Growth controlling degree (%) Prickly sida [14] | Growth controlling degree (%) Velvetleaf [15] | Growth controlling degree (%) Rice [16] | Growth controlling degree (%) Corn [17] | Growth controlling degree (%) Soyabean [18] | Growth controlling degree (%) Barnyardgrass [19] | Growth controlling degree (%) Japanese bulrush [20] | also measured
1 | CC(C)C(c1cnccc1C(F)(F)F)N(C)C(=O)Cc1cccs1 (centres unmarked) [I-258] | 80% | 90% | 50% | 80% | 70% | 90% | 10% | 10% | 70% | 100% | 100% | 100% | 90% | 100% | 60% | 10% | 0% | 10% | 100% | 98% | Growth controlling degree (%) Japanese ribbon wapato [21]: 70%; Growth controlling degree (%) Rice [22]: 30%
2 | CCC(C)C(c1cnccc1C(F)(F)F)N(C)C(=O)Cc1ccccc1 (centres unmarked) [I-260] | 80% | 80% | 50% | 40% | 95% | 90% | 40% | 80% | 90% | 80% | 98% | 100% | 70% | 95% | 70% | 10% | 30% | 20% | 100% | 98% | Growth controlling degree (%) Japanese ribbon wapato [21]: 60%; Growth controlling degree (%) Rice [22]: 10%
3 | CCC(C)C(c1cnccc1C(F)(F)F)N(C)C(=O)COc1ccccc1 (centres unmarked) [I-261] | 70% | 60% | 60% | 50% | 60% | 50% | 20% | 10% | 80% | 90% | 100% | 100% | 70% | 98% | 50% | 20% | 20% | 20% | 100% | 95% | Growth controlling degree (%) Japanese ribbon wapato [21]: 70%; Growth controlling degree (%) Rice [22]: 20%
4 | CCC(CC)C(c1cnccc1C(F)(F)F)N(C)C(=O)Cc1ccccc1 (centres unmarked) [I-262] | 80% | 80% | 70% | 70% | 95% | 90% | 35% | 60% | 80% | 20% | 100% | 95% | 70% | 90% | 60% | 50% | 40% | 20% | 98% | 95% | Growth controlling degree (%) Japanese ribbon wapato [21]: 30%; Growth controlling degree (%) Rice [22]: 0%
5 | CCC(CC)C(c1cnccc1C(F)(F)F)N(C)C(=O)COc1ccccc1 (centres unmarked) [I-263] | 80% | 80% | 70% | 70% | 90% | 95% | 60% | 40% | 80% | 10% | 95% | 60% | 70% | 70% | 40% | 40% | 20% | 10% | 5% | 90% | Growth controlling degree (%) Japanese ribbon wapato [21]: 20%; Growth controlling degree (%) Rice [22]: 0%
